This experiment has as its target Ubiquitin-conjugating enzyme E2 N (Homo sapiens) (UniProt P61088). The experiment is described as follows: UBE2N binders by NMR, biophysical, purified protein (AID 1552). The conditions noted are these: NMR binding to purified UBE2N.

A word on the Kd: it is the equilibrium constant for the complex coming apart.

Calls of active or inactive are those of the source. No rule for the calls is given here. Bounds are passed on as bounds.

Sequence of Ubiquitin-conjugating enzyme E2 N (Homo sapiens) (P61088 whole entry, looked up): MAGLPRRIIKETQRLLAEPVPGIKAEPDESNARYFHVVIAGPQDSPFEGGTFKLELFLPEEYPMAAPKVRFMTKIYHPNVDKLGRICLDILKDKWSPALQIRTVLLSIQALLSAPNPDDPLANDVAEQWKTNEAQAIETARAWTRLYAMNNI

On to `CCOC(=O)C1=C(C)N2CCN=C2S1`, for which the Kd was > 4 mM (inactive).

As for `CCCNC(=O)c1cnc2n(c1=O)CCS2`, the Kd is > 4 mM (inactive).

Consider `COC(=O)c1cncn1C`, for which the Kd is > 4 mM (inactive).

On to `O=C(NC(=S)NC1CCS(=O)(=O)C1)c1ccccc1` (stereo not drawn), for which the Kd is > 4 mM (inactive).

As for `NS(=O)(=O)c1ccc(N=C2NC(=O)CS2)cc1`, the Kd is > 4 mM (inactive).

Consider `Cc1cc(NC(=O)c2ccc3c(c2)OCO3)no1`, for which the Kd is > 4 mM (inactive).

Consider `CC(=O)c1c(C)nc(C)nc1NC(=O)C(C)C`, for which the Kd is > 4 mM (inactive).

On to `CN1CCCCC1c1ccc(-c2cccnc2)nc1` (stereo not drawn), for which the Kd was > 4 mM (inactive).

As for `CCN(CC)S(=O)(=O)c1ccc(F)cc1`, the Kd is > 4 mM (inactive).

In the case of `CCn1c(C)c(C(C)=O)c(N2CCOCC2)nc1=S`, the Kd was > 4 mM (inactive).

Turning to `Cc1cc(C(=O)N2CCOCC2)c(C)o1`, the Kd is > 4 mM (inactive).

Take `O=C(c1ccccc1F)N1CCN(c2ccccc2)CC1`: the Kd was > 4 mM (inactive).

On to `CC1(O)CC2C(CC1O)C2(C)C` (stereo not drawn), for which the Kd was > 4 mM (inactive).

With `CCc1cc(=O)[nH]c(SCC(=O)NCCOC)n1`, the Kd was > 4 mM (inactive).

As for `NC1CN2CCC1CC2` (stereo not drawn), the Kd is > 4 mM (inactive).

For `Nc1nc(-c2ccc(O)cc2)cs1`, the Kd was > 4 mM (inactive).

With `CC(=O)Nn1cc2c(=O)n(C)c(=O)n(C)c2c1`, the Kd was > 4 mM (inactive).

Consider `S=C(NC1CC1)NN1CCOCC1`, for which the Kd is > 4 mM (inactive).

Turning to `O=C(Nc1c[nH]c(=O)[nH]c1=O)c1ccccc1F`, the Kd is > 4 mM (inactive).

Consider `Cc1ccc(-c2nn3c(C)nnc3s2)cc1N`, for which the Kd was > 4 mM (inactive).

Regarding `Cc1cc(NC(=O)NCCCSc2nncn2C)no1`, the Kd was > 4 mM (inactive).

With `O=C(/C=C/c1ccccc1)c1ccc(O[C@@H]2O[C@H](CO)[C@@H](O)[C@H](O)[C@H]2O)cc1O`, the Kd was > 4 mM (inactive).

Consider `OCC1COc2ccccc2C1` (stereo not drawn), for which the Kd was > 4 mM (inactive).

In the case of `Cc1nn(CC(=O)Nc2ccccc2)c(=O)c2ccccc12`, the Kd is > 4 mM (inactive).

Consider `CCC(C)C(=O)O[C@H]1[C@H](O)C2C(CN3CC(C)CCC3[C@@]2(C)O)C2C[C@]34O[C@]5(O)C(OC(=O)C(C)(O)C(C)O)CC[C@@]3(C)C5C(OC(C)=O)[C@@H](OC(C)=O)C4[C@@]21O` (stereo partly drawn), for which the Kd is > 4 mM (inactive).

On to `CNC(=S)NCCN1CCOCC1`, for which the Kd was > 4 mM (inactive).

In the case of `C[C@H]1O[C@@H](O[C@H]2[C@@H](O)C[C@H](O[C@H]3[C@@H](O)C[C@H](O[C@H]4CC[C@]5(C)C6CC[C@]7(C)[C@@H](C8=CC(=O)OC8)CC[C@]7(O)C6CC[C@@H]5C4)O[C@@H]3C)O[C@@H]2C)C[C@H](O)[C@@H]1O` (stereo partly drawn), the Kd was > 4 mM (inactive).

Turning to `CC(C)NC(=S)NCc1cnn(C)c1`, the Kd is > 4 mM (inactive).

In the case of `Cc1cccc(-n2c(N)cc(=O)[nH]c2=S)c1C`, the Kd is > 4 mM (inactive).

Take `COc1cc(/C=C2/NC(=S)NC2=O)cc(Cl)c1O`: the Kd is > 4 mM (inactive).

For the compound `S=C1NC(=S)NC(c2ccc3c(c2)OCO3)N1`, the Kd is > 4 mM (inactive).

In the case of `NCCc1cnc[nH]1`, the Kd was > 4 mM (inactive).

With `CSc1nnc2[nH]c(=O)cc(N)n12`, the Kd is > 4 mM (inactive).

For the compound `Nc1ccc(CN2CCOCC2)cc1`, the Kd was > 4 mM (inactive).

Consider `CN1CCN(C(=O)c2ccccc2C(=O)O)CC1`, for which the Kd is > 4 mM (inactive).

On to `CS(=O)(=O)c1ccc2nc(N)sc2c1`, for which the Kd was > 4 mM (inactive).

For `Nc1nnc(SCc2ccc3c(c2)OCO3)s1`, the Kd is > 4 mM (inactive).

As to `Cc1cc(OC(=O)c2c(C)cc(O)cc2O)cc(O)c1C(=O)O`, the Kd was > 4 mM (inactive).

Take `CC1CC[C@]2(NC1)O[C@H]1CC3C4CC[C@H]5C[C@@H](O)CC[C@]5(C)C4CC[C@]3(C)[C@H]1[C@@H]2C` (stereo partly drawn): the Kd is > 4 mM (inactive).

For `Cc1cc(NC(=O)CSc2nncn2C)no1`, the Kd is > 4 mM (inactive).

For the compound `O=c1cc(-c2ccccc2)oc2cc(O)c(O)c(O)c12`, the Kd is > 4 mM (inactive).

Turning to `Cc1sc2nc(SC3CCOC3=O)[nH]c(=O)c2c1C` (stereo not drawn), the Kd is > 4 mM (inactive).

For `CCOC(=O)c1cnc2sccn2c1=O`, the Kd was > 4 mM (inactive).

Take `Cn1c(SCC(N)=O)nc2ccccc2c1=O`: the Kd is > 4 mM (inactive).

For `Cc1ccc(Nc2nc(N)nc(CC#N)n2)cc1`, the Kd is > 4 mM (inactive).

As to `NC(=O)CSc1ccc(-c2ccco2)nn1`, the Kd is > 4 mM (inactive).

Regarding `O=C(Oc1ccc2c(c1)CCC2)N1CCOCC1`, the Kd was > 4 mM (inactive).

`Clc1ccccc1OCc1nc(-c2ccncc2)no1`: the Kd is > 4 mM (inactive).

`O=C(Oc1ccc(-c2nnco2)cc1)N1CCCCC1`: the Kd is > 4 mM (inactive).

Take `CC(=O)c1cc2c(cc1O)OC(C)(C)C=C2`: the Kd was > 4 mM (inactive).

For `CC(=O)c1cc(C(N)=O)c(=S)[nH]c1C`, the Kd was > 4 mM (inactive).

On to `O=C(O)c1cnn2ccccc12`, for which the Kd is > 4 mM (inactive).

Regarding `O=C(/C=C/c1ccccc1)NC1CCS(=O)(=O)C1` (stereo not drawn), the Kd was > 4 mM (inactive).

As for `COc1ncccc1N`, the Kd was > 4 mM (inactive).

As to `Oc1ccccc1-c1cc(C(F)(F)F)[nH]n1`, the Kd is > 4 mM (inactive).

For the compound `O=c1c2ccccc2ncn1C1CCCCC1`, the Kd was > 4 mM (inactive).

With `O=C(Nc1ccon1)c1cccc(Cl)c1`, the Kd is > 4 mM (inactive).

For the compound `Cc1noc(C)c1C(=O)NCc1cccs1`, the Kd is > 4 mM (inactive).

Consider `Cc1nc2c(n1O)CCc1c-2no[n+]1[O-]`, for which the Kd is > 4 mM (inactive).

Turning to `COC(=O)c1c(OC)cc2c(c1C)Oc1c(Cl)c(OC(C)=O)c(Cl)c(C)c1C(=O)O2`, the Kd is > 4 mM (inactive).

`O=c1n(-c2cccc(Cl)c2)c(=O)n2n1CCC2`: the Kd is > 4 mM (inactive).

On to `Nc1ccc(Cl)nn1`, for which the Kd is > 4 mM (inactive).

As to `CNc1ccccc1C(=O)O`, the Kd was > 4 mM (inactive).

Consider `O=[N+]([O-])c1ccc(/C=N/c2ncn[nH]2)cc1`, for which the Kd is > 4 mM (inactive).

As to `c1ccc(Cc2nnc(-c3ccccc3)o2)cc1`, the Kd is > 4 mM (inactive).

As to `O=C1c2ccccc2C(=O)c2c1ccc(O)c2O`, the Kd was > 4 mM (inactive).

Turning to `NC(=O)c1ccc(N2CCCCC2)c(N)c1`, the Kd is > 4 mM (inactive).

Take `CC(=O)c1c(O)n(C)c(=S)n(C)c1=O`: the Kd was > 4 mM (inactive).

For the compound `O=C(O)CSCc1ccc(Cl)cc1`, the Kd is > 4 mM (inactive).

Regarding `c1cc2n(c1)CCNC2c1ccncc1` (stereo not drawn), the Kd is > 4 mM (inactive).

Regarding `O=C(CSc1ccc(Cl)cc1)N1CCOCC1`, the Kd is > 4 mM (inactive).

For the compound `Cc1ccc(N2C(=O)C3C4C=CC(O4)C3C2=O)cc1` (stereo not drawn), the Kd was > 4 mM (inactive).

In the case of `CC(=O)c1cc(-c2nc3ccccc3n2C)n(C)c1`, the Kd is > 4 mM (inactive).

In the case of `Cc1c(N=Cc2ccc[nH]2)c(=O)n(-c2ccccc2)n1C`, the Kd was > 4 mM (inactive).

For `Cc1n[nH]c(C)c1CN`, the Kd is > 4 mM (inactive).

Turning to `NC(=O)/C=C/C(=O)Nc1ccccc1`, the Kd is > 4 mM (inactive).

Consider `OCC1Cc2ccccc2N1` (stereo not drawn), for which the Kd is > 4 mM (inactive).

Take `NNC(=O)c1ccccc1-n1cccc1`: the Kd is > 4 mM (inactive).

As for `Cc1nn(C)c2sc(CO)cc12`, the Kd is > 4 mM (inactive).

`COc1cccc(-c2cc(=O)c3cc(OC)ccc3o2)c1`: the Kd is > 4 mM (inactive).

In the case of `C/C=C/COc1nc2c(c(=O)n(C)c(=O)n2C)n1C`, the Kd is > 4 mM (inactive).

For `CC(=O)Nc1ccc(NC(C)=O)cc1`, the Kd is > 4 mM (inactive).

`NC(=O)CN1CC(=O)NC(=O)C1`: the Kd is > 4 mM (inactive).

With `O=C1CCNc2ccccc2N1`, the Kd was > 4 mM (inactive).

As for `Cc1cc(C(=O)Nc2ccon2)cs1`, the Kd was > 4 mM (inactive).

On to `O=C1Nc2ccccc2C1C1(O)C(=O)Nc2ccc(F)cc21` (stereo not drawn), for which the Kd is > 4 mM (inactive).

In the case of `CC(=O)Nc1c(C#N)c(C(C)(C)C)cn1C`, the Kd was > 4 mM (inactive).

On to `O=C(O)c1cnc2n(c1=O)CCS2`, for which the Kd is > 4 mM (inactive).

On to `CCOC12NC(=O)CC(=O)N1C(c1ccccc1)=CS2` (stereo not drawn), for which the Kd was > 4 mM (inactive).

As to `Cc1ccc(NC(=O)C(=O)Nc2ccccn2)cc1`, the Kd is > 4 mM (inactive).

For the compound `c1ccc(SCc2nc(-c3ccncc3)no2)cc1`, the Kd is > 4 mM (inactive).

For `COc1ccc(-c2coc3c(O)c(OC)ccc3c2=O)cc1`, the Kd is > 4 mM (inactive).

Regarding `O=c1c2c(nc3nc(COc4ccccc4)[nH]n13)CCC2`, the Kd was > 4 mM (inactive).

Consider `CC(=O)O[C@H]1C[C@@H](OC(C)=O)C(C)(C)C2C[C@@H](OC(C)=O)[C@]3(C)C([C@H](OC(C)=O)C[C@@]4(C)[C@H](c5ccoc5)OC(=O)[C@H]5O[C@]543)[C@]21C` (stereo partly drawn), for which the Kd was > 4 mM (inactive).

`C/C=C(/C)C(=O)O[C@@H]1Cc2c(ccc3ccc(=O)oc23)OC1(C)C`: the Kd is > 4 mM (inactive).

For `O=S1(=O)C=C(Nc2ccccc2)CC1`, the Kd was > 4 mM (inactive).

As for `NCc1cccc(-n2cccc2)c1`, the Kd was > 4 mM (inactive).

For `NC(=O)C1CCN(C(=O)c2ccco2)CC1`, the Kd is > 4 mM (inactive).

Take `O=C(O)CNC(=O)c1ccc([N+](=O)[O-])cc1`: the Kd was > 4 mM (inactive).

As for `CC1(C)SCC(C(=O)O)N1C=O` (stereo not drawn), the Kd is > 4 mM (inactive).

On to `O=C1C2C3CCC(O3)C2C(=O)N1c1cccc(F)c1` (stereo not drawn), for which the Kd is > 4 mM (inactive).

Take `CCOC(=O)c1cc2ccccc2oc1=O`: the Kd was > 4 mM (inactive).

In the case of `CC(=O)Oc1cc2c(C(C)=O)coc2c2ccccc12`, the Kd is > 4 mM (inactive).

The record behind these values is PubChem BioAssay AID1552 (Sanford-Burnham Center for Chemical Genomics, 2009).
